{"source": "PubChem BioAssay AID1996", "data": [{"details": "buffer; pH 7.4; 200.0 µM", "units": {"solubility kinetic": "µg/mL"}, "values": [{"compound": "Cc1ccc2c(c1)N(CC(=O)NCc1ccco1)C(=O)C(C(C)C)O2", "note": "(centres undefined)", "solubility kinetic": 22.8}, {"compound": "O=C(CNC(=O)c1ccc(Br)o1)NCc1ccccc1", "solubility kinetic": "> 50.6"}, {"compound": "COc1ccc(NC(=O)C2C3CC/C=C\\CCC32)cc1", "note": "(centres undefined)", "solubility kinetic": "< 0.6"}, {"compound": "CN(C(=O)CSc1cccc[n+]1[O-])C1CCCCC1", "solubility kinetic": "> 42.1"}, {"compound": "Cc1ccc(C)c(NC(=S)NCCc2c[nH]c3ccccc23)c1", "solubility kinetic": 17.1}, {"compound": "O=C(NNC(=O)C1CCN(S(=O)(=O)c2ccccc2)CC1)c1ccccc1O", "solubility kinetic": "> 60.5"}, {"compound": "NC(=O)N1CCc2ccccc21", "solubility kinetic": "> 24.3"}, {"compound": "O=C(CN1CCN(c2ccccc2)CC1)NCc1ccc(F)cc1", "solubility kinetic": "> 49.1"}, {"compound": "O=C(Cc1ccccc1F)Nc1ccccc1-c1ccccc1", "solubility kinetic": 7.1}, {"compound": "O=C(CCCOc1ccccc1)Nc1cccc(S(=O)(=O)N2CCOCC2)c1", "solubility kinetic": 57.6}, {"compound": "COc1ccc(-c2noc(-c3cccs3)n2)cc1OC", "solubility kinetic": 0.5}, {"compound": "CC1=N/C(=C\\c2ccccc2Cl)C(=O)O1", "solubility kinetic": 27.7}, {"compound": "C=CCNC(=O)COC(=O)c1c2c(nc3ccccc13)CCC2", "solubility kinetic": 40.9}, {"compound": "CN(C)c1ccc(/C=C/c2cccc[n+]2[O-])cc1", "solubility kinetic": "> 36"}, {"compound": "Cc1ccc2c(c1)N(CC(=O)N1CCCCC1)C(=O)C(C)O2", "note": "(centres undefined)", "solubility kinetic": "> 45.4"}, {"compound": "CC(C)CCC(C)NC(=O)Cc1ccc(S(=O)(=O)N2CCOCC2)s1", "note": "(centres undefined)", "solubility kinetic": 47}, {"compound": "N#C/C(=C\\c1cccs1)C(=O)c1ccccc1Cl", "solubility kinetic": "> 41.1"}, {"compound": "N/C(=N\\OC(=O)c1ccc(Cl)c([N+](=O)[O-])c1)c1ccccc1", "solubility kinetic": 7.9}, {"compound": "CSc1ncc(C(=O)Nc2ccc(C)cc2C)c(C)n1", "solubility kinetic": 12.1}, {"compound": "COc1ccc(Cl)cc1C(=O)NCC(c1ccco1)N(C)C", "note": "(centres undefined)", "solubility kinetic": 45.1}, {"compound": "O=C(NC1CC1)c1sc2ccccc2c1Cl", "solubility kinetic": 1.6}, {"compound": "Cc1ccc2nc(C3CCCCC3)[nH]c2c1", "solubility kinetic": "> 32.1"}, {"compound": "O=[N+]([O-])c1cc(-n2cccc2)ccc1N1CCOCC1", "solubility kinetic": 31.6}, {"compound": "COc1cccc(C(=O)Nc2c[nH]c(=O)[nH]c2=O)c1", "solubility kinetic": 36.1}, {"compound": "CC1CC(=O)Nc2ccccc2N1S(=O)(=O)c1ccc(F)cc1F", "note": "(centres undefined)", "solubility kinetic": 15.6}, {"compound": "CCOC(=O)c1c(-c2ccc(C)s2)csc1N", "solubility kinetic": 7.3}, {"compound": "O=C(NC(=S)N1CCCC1)c1ccccc1Cl", "solubility kinetic": 35.7}, {"compound": "CC(=O)N1CCN(CC(=O)Nc2ccc(C)c(F)c2)CC1.Cl", "solubility kinetic": 46.8}, {"compound": "C#CCn1c(CCNC(=O)c2ccco2)nc2ccccc21", "solubility kinetic": "> 44"}, {"compound": "COc1cccc(N2CN(CCc3ccccc3)CNC2=S)c1", "solubility kinetic": 9.8}, {"compound": "Cc1ccc(C(=O)Nc2cccc(-c3nc4ncccc4o3)c2)cc1", "solubility kinetic": 1.3}, {"compound": "O=C(COC(=O)c1ccc([N+](=O)[O-])o1)NCCc1ccccc1", "solubility kinetic": "> 47.7"}, {"compound": "CC(=O)c1c(C)[nH]c(C(=O)Nc2cccc3ccccc23)c1C", "solubility kinetic": 5.9}, {"compound": "O=C1NC(=Nc2ccc(F)cc2)CS1", "solubility kinetic": "> 31.5"}, {"compound": "O=C(CSc1nc2ccccc2s1)NC1CCCC1", "solubility kinetic": 38.6}, {"compound": "COc1ccccc1NC(=O)c1ccc2c(c1)C(=O)N(Cc1ccco1)C2=O", "solubility kinetic": "< 0.4"}, {"compound": "COc1cc2ncnc(NCc3ccc(C)o3)c2cc1OC", "solubility kinetic": 35}, {"compound": "COc1ccc(OS(=O)(=O)c2c(C)noc2C)cc1", "solubility kinetic": 29.3}, {"compound": "CC(=O)Nc1cc[n+](CC(=O)c2cccc([N+](=O)[O-])c2)cc1.[Cl-]", "solubility kinetic": 40.3}, {"compound": "O=C(NCc1ccccc1F)c1cccc(S(=O)(=O)N2CCCCC2)c1", "solubility kinetic": 5.8}, {"compound": "CC(C)CNC(=S)NC(=O)c1csc([N+](=O)[O-])c1", "solubility kinetic": 2.8}, {"compound": "COC(=O)c1cc2cc(Cl)ccc2nc1SC", "solubility kinetic": "< 0.6"}, {"compound": "Cc1c(C)c2ccc(OCC(=O)Nc3ccccn3)cc2oc1=O", "solubility kinetic": "< 0.3"}, {"compound": "O=C(c1cc2cc(Cl)ccc2[nH]1)N1CCN(c2ccccc2F)CC1", "solubility kinetic": "< 0.3"}, {"compound": "CC1(C)Cc2c(c(N3CCCC3)nc3sc4c(N5CCNCC5)ncnc4c23)CO1", "solubility kinetic": 28.6}, {"compound": "Cc1nc2ccccc2nc1OCC(=O)Nc1ccc(F)cc1", "solubility kinetic": 33}, {"compound": "CCOc1ccc(C2=CSC3=NCCN23)cc1Cl", "solubility kinetic": 25}, {"compound": "Nc1c(C(=O)O)cnn1-c1ccccc1", "solubility kinetic": "> 30.5"}, {"compound": "C=C(C)CN(CC)c1ccc(N2C(=O)CCCC2=O)cc1[N+](=O)[O-]", "solubility kinetic": 17.8}, {"compound": "O=C(CNCc1ccc(F)cc1)Nc1cc(S(=O)(=O)N2CCOCC2)ccc1Cl", "solubility kinetic": 8.4}, {"compound": "Cc1ccccc1C(=O)/C=C1/SCC(=O)N1C", "solubility kinetic": "> 37.1"}, {"compound": "O=C(NC(=S)Nc1ccc(F)c(Cl)c1)C1CC1", "solubility kinetic": 2.3}, {"compound": "COc1cccc(N2CCC(N3CCN(C)C(CCO)C3)CC2)c1", "note": "(centres undefined)", "solubility kinetic": 48.4}, {"compound": "CCCCn1c(N)c(N(C)C(=O)C2CCCC2)c(=O)[nH]c1=O", "solubility kinetic": "> 46.3"}, {"compound": "CCc1ccc(C(=O)Nc2cc(C)ccc2F)s1", "solubility kinetic": 16.6}, {"compound": "Cc1ccccc1CC1CCN(CCCNC(=O)Nc2ccccc2)CC1", "solubility kinetic": 39.9}, {"compound": "Cc1cccc(C)c1CC(=O)N1CCOCC1", "solubility kinetic": 34.6}, {"compound": "Cc1ccc(C)c(NC(=O)CSc2nnc(-c3ccncc3)o2)c1", "solubility kinetic": "> 51.1"}, {"compound": "Cc1c(C(=O)n2cnc3ccccc32)cccc1[N+](=O)[O-]", "solubility kinetic": 39.8}]}]}
